Non-standard residues stand in square brackets, D forms with d. Residues, ends and D or L forms follow the SMILES beside them. *: point of attachment. 12Ado = NCCCCCCCCCCCC(=O)O; Decanoyl = CCCCCCCCCC(=O)*; Orn = NCCC[CH](N)C(=O)O
Test: Critical aggregation concentration by light scattering in PBS
Type: physicochemical
Conditions: light scattering in phosphate-buffered saline
Procedure: Organization of the compounds in aqueous solution was assessed by light-scattering measurements in phosphate buffered saline (PBS; 10 mM Na2HPO4, 150 mM NaCl, pH=7.0). Hemolytic assays were performed as described elsewhere, using fresh mouse red blood cells.
The mean value (±SD) is shown for Compound C; Minimum inhibitory concentration (MIC) of compounds required to inhibit bacterial proliferation after overnight incubation.

For `CCCCCCCCCC(=O)NC(CCCN)C(=O)NC(CCCN)C(=O)NCCCCCCCCCCCC(=O)NC(CCCN)C(N)=O` (stereo not shown) [Compound B] (Decanoyl-[Orn][Orn][12Ado][Orn]-NH2; configuration not given here), the “CAC, critical aggregation concentration” value was greater than 100 µM.
